Measured values reported in patent US20260152533A1, “COMBINATION INHIBITORS FOR TREATING FIBROSIS” (Memorial Sloan-Kettering Cancer Center, priority 2021, published 2026).

Experiments:
Assay type in all cases: cell-based, mouse
NIH-3T3 cells [1] = experiment: Growth experiments, NIH-3T3 cells; details: for rescue of TGFβ-induced growth defect: TGFβ, 0.2, 1 or 5 mM metabolite
From the text: NIH-3T3 cells were obtained from ATCC (CRL-1658); 293 T cells were obtained from ATCC (CRL-3216). PSCs were isolated from C57BL/6 mice by differential centrifugation as previously described^49 and their mesenchymal origin was validated by analyzing the expression of various mesenchymal and epithelial markers. MFBs were isolated from FVB/N mice by differential centrifugation as previously described^50. DB7 mouse breast cancer cells were obtained from Alexander Borowsky (University of California Davis Comprehensive Cancer Center, Sacramento, CA, USA) through an MTA to Ohio State University (OSU). KPC (Kras^LSL-G12D; Trp53^LSL-R172H; Pdx1-Cre) mouse PDAC cells were a gift from Scott Lowe (Memorial Sloan Kettering Cancer Center. (MSKCC)). All cells were cultured at 37° C. in 5% carbon dioxide (CO2) and 20% oxygen (O2) and were maintained in Dulbecco's Modified Eagles medium (DMEM) (25 mM D-glucose, 2 mM L-glutamine) supplemented with 10% fetal bovine serum (FBS) (Gemini), 100 units/ml penicillin and 100 μg/ml streptomycin. Primary PSC and MFB cells were kept in culture for no more than ten passages. Experiments with iCAFs and myCAFs were performed as previously described^29. In brief, qPSCs were generated by culturing PSCs in a dome of GFR Matrigel (Corning) in DMEM; iCAFs were generated by culturing PSCs in a dome of GFR Matrigel in DMEM conditioned by KPC cells for 48 h; myCAFs were generated by monolayer culture of PSCs. Differentiation was validated by analyzing the expression of iCAF/myCAF markers^29. For experiments with different glutamine concentrations, cells were seeded in regular DMEM and the medium was changed 5-6 hours later or the following day to glucose and glutamine-free DMEM supplemented with 10% dialyzed FBS (Gemini) and 20 mM D-glucose, 2 mM L-glutamine (100%), 0.4 mM L-glutamine (20%) or 0.2 mM L-glutamine (10%). All media were prepared by the Media Preparation Facility at MSKCC. Cells were verified as mycoplasma-free by the MycoAlert Mycoplasma Detection Kit (Lonza).
(§1) A total of 0.2×10^5 cells/well were plated in 24-well culture plates and media was changed and treatments started 5-6 hours later. Cell numbers at the start of treatment (day 0 “d 0”) and 1, 2 and 3 days later were counted using the Multisizer 4e (Beckman) and normalized to the cell number at d 0. In co-culture assays, a fraction of the cell population was analyzed by flow cytometry for GFP expression, and the rest counted with the Multisizer 4e. The number of KPC-GFP cells was determined by multiplying the fraction of GFP+ cells with the total number of cells.

NIH-3T3 cells [2] = experiment: tRNA charging assay, NIH-3T3 cells
Description: Charging status of the indicated tRNA isodecoders was measured as previously described^20. In brief, Trizol-chloroform extracts were precipitated with 2.7× volumes of cold ethanol in the presence of 30 μg GlycoBlue (ThermoFisher) overnight. Samples were resuspended in 0.3 M acetate buffer (pH 4.5) with 10 mM ethylenediamine tetraacetic acid (EDTA) and precipitated overnight. Samples were resuspended in 10 mM acetate buffer with 1 mM EDTA. 2 μg of each RNA sample was treated with 10 mM of either sodium periodate (Sigma) (‘oxidized sample’) or sodium chloride (‘non-oxidized sample’) and incubated for 20 minutes at room temperature in the dark. Reactions were quenched with glucose for 15 minutes. Yeast Phe-tRNA (Sigma) was spiked into each sample, followed by ethanol precipitation. Samples were resuspended in 50 mM Tris buffer (pH 9) and incubated for 50 minutes at 37° C., quenched with acetate buffer and precipitated. […] Reverse transcription was performed with SuperScript IV reverse transcriptase (Thermo Scientific) according to the manufacturer's instructions, with a primer complementary to the DNA adaptor. cDNA samples were subjected to qPCR with tRNA isodecoder-specific primer pairs listed in Supplementary Table 1. Ct values obtained with primers specific for yeast Phe-tRNA were subtracted from Ct values obtained with isodecoder-specific primers. The charged fraction was calculated based on the relative difference between the delta-Ct value of a non-oxidized (representing total) and oxidized (representing charged) sample for each primer pair.

NIH-3T3 cells [3] = experiment: Translation assay (OPP), NIH-3T3 cells; details: TGFβ
Description: Cells were treated as indicated and incubated with 20 μM O-propargyl-puromycin (OPP, Thermo Scientific) for the last 1 hour of the experiment. Cells were harvested by trypsinization and fixed with methanol at −20° C., followed by permeabilization with 0.5% Triton X-100 in phosphate-buffered saline (PBS).

NIH-3T3 cells [4] = experiment: Collagen abundance in ECM derived from confluent NIH-3T3 cells; details: 100% and 50% Gln, TGFβ
Description: (§2) Culture plates were coated with 0.1% gelatin (Sigma) and treated with 1% glutaraldehyde (Sigma) and 1 M ethanolamine (Sigma). Confluent NIH-3T3 cells, MFBs or PSCs were grown for 6 days on coated plates in the presence of […] sodium ascorbate (Sigma) and treated as indicated, and the medium was replaced every other day. Plates were decellularized with 20 mM ammonium hydroxide/0.5% Triton-X 100 for 5 min on a rotating platform. Three times the volume of PBS was added, and ECM was equilibrated overnight at 4° C., followed by four additional PBS washes. For western blot, preheated sample buffer supplemented with 1 mM dithiothreitol (DTT) was added, ECM was scraped off and boiled, and proteins were separated by SDS-PAGE followed by immunoblotting. To measure collagen abundance, fibroblast-derived ECM was stained with the Picro Sirius Red Stain Kit (Abcam) according to the manufacturer's instructions. The stain was extracted with 0.1 M sodium hydroxide (NaOH) and optical density was measured at 550 nm using a microplate reader. Differences in cell number were controlled for by growing cells on separate plates under the same experimental conditions.

[5] = tested on: mammary fibroblasts (MFBs); experiment: Growth experiments, MFBs; details: 20% Gln, TGFβ
From the text: NIH-3T3 cells were obtained from ATCC (CRL-1658); 293 T cells were obtained from ATCC (CRL-3216). PSCs were isolated from C57BL/6 mice by differential centrifugation as previously described^49 and their mesenchymal origin was validated by analyzing the expression of various mesenchymal and epithelial markers. MFBs were isolated from FVB/N mice by differential centrifugation as previously described^50. DB7 mouse breast cancer cells were obtained from Alexander Borowsky (University of California Davis Comprehensive Cancer Center, Sacramento, CA, USA) through an MTA to Ohio State University (OSU). KPC (Kras^LSL-G12D; Trp53^LSL-R172H; Pdx1-Cre) mouse PDAC cells were a gift from Scott Lowe (Memorial Sloan Kettering Cancer Center. (MSKCC)). […]
as §1

[6] = tested on: pancreatic stellate cells (PSCs); experiment: Collagen abundance in ECM derived from confluent PSCs; details: Gln 20% or lower, TGFβ (FIG. 8C)
Description: as §2

[7] = tested on: mammary fibroblasts (MFBs); experiment: Collagen abundance in ECM derived from confluent MFBs; details: Gln 20% or lower, TGFβ (FIG. 8F)
Description: as §2

## COC(=O)CC[C@H](N)C(=O)OC [dm-Glu, L-glutamic acid dimethylester]
NIH-3T3 cells [1]; 10% Gln, 3 days
  rescue of TGFβ-induced growth defect: sufficient to restore

## COC(=O)CCC(=O)C(=O)OC [dm-αKG, dimethyl alpha-ketoglutarate]
NIH-3T3 cells [2]; 10% Gln, TGFβ 2 ng/mL, dm-αKG 5 mM with or without MSO 2 mM, 48 hours (FIG. 2A)
  charging of glutamine-tRNA: restored
NIH-3T3 cells [1]; 10% Gln, 3 days
  rescue of TGFβ-induced growth defect: able to rescue
NIH-3T3 cells [3]; 10% Gln, dm-αKG (FIG. 2B)
  translation: promoted

## TGFβ: transforming growth-factor beta; TGFβ-1 purchased from Peprotech
NIH-3T3 cells [4]
  collagen I levels in the ECM secreted by confluent fibroblasts: upregulated
[5]
  cell proliferation: unable to proliferate
NIH-3T3 cells [2]; low Gln (10%), TGFβ, 48 hours (FIG. 1D)
  charging state of glutamine-tRNA: profound uncharging
NIH-3T3 cells [1]; 10% Gln, TGFβ
  cell proliferation: ceased to proliferate
NIH-3T3 cells [1]; 100% and 50% Gln, TGFβ 2 ng/mL, 3 days
  cell proliferation: did not change
NIH-3T3 cells [3]; low Gln (10%), 48 hours, compared to control cells (FIG. 1F)
  bulk translation: reduced
[6]
  collagen accumulation in the ECM: could no longer stimulate
[7]
  collagen accumulation in the ECM: could no longer stimulate
